Where a SMILES comes first, the peptide text is derived from it. The star is where a group is joined. X1 = O=C(CCCCSc1ncnc2nc[nH]c12)*
test: from Bachrata, M.; Bezakova, Z.; Pesák, M.; Blesova, M. (1983). Study of physicochemical properties of substances with cancerostatic effect. II. Study of lipo-hydrophilic parameters. Acta Fac. Pharm. …; conditions: pH 7.0

`CCCOC(=O)CNC(=O)CCCCSc1ncnc2nc[nH]c12` and `CCCCOC(=O)CNC(=O)CCCCSc1ncnc2nc[nH]c12` are within 0.2 log units of each other in logD: 1.37 for the first, 1.39 for the second.

`CCOC(=O)C[C@H](NC(=O)CCCCSc1ncnc2nc[nH]c12)C(=O)OCC` and `CCOC(=O)C(C)NC(=O)CCCCSc1ncnc2nc[nH]c12` (configuration not stated) are within 0.2 log units of each other in logD: 1.33 for the first, 1.51 for the second.

Compared with `CCOC(=O)CNC(=O)CCCCSc1ncnc2nc[nH]c12`, `CCOC(=O)CNC(=O)CNC(=O)CCCCSc1ncnc2nc[nH]c12` is lower in logD: 0.91 for the first, 0.5 for the second.

Compared with `CCOC(=O)C(NC(=O)CCCCSc1ncnc2[nH]cnc12)C(C)C` (racemic), `CCOC(=O)[C@H](CC(C)C)NC(=O)CNC(=O)CNC(=O)CCCCSc1ncnc2nc[nH]c12` is lower in logD: 1.89 for the first, 1.07 for the second.

Going from `CCOC(=O)CNC(=O)CNC(=O)CNC(=O)CNC(=O)CCCCSc1ncnc2nc[nH]c12` (X1-GGGG-OEt) to `CCOC(=O)CNC(=O)CNC(=O)CNC(=O)CCCCSc1ncnc2nc[nH]c12`, the logD rises from -0.23 to 0.21.

Going from `CCOC(=O)C(NC(=O)CCCCSc1ncnc2nc[nH]c12)c1ccccc1` (configuration not stated) to `c1ncc2[nH]cnc2n1`, the logD falls from 1.13 to -0.21.
